According to patent publication US20210402016A1, “RADIOLABELED BOMBESIN-DERIVED COMPOUNDS FOR IN VIVO IMAGING OF GASTRIN-RELEASING PEPTIDE RECEPTOR (GRPR) AND TREATMENT OF GRPR-RELATED DISORDERS” (Provincial Health Services Authority, priority 2018, published 2021):
Where two headings read alike, the source gives them in different places.

Tests used:
[1] = measured at 5 min and 15 min p.i., mice, radio-HPLC
Text: ^68Ga-ProBOMB2 (5.9±0.3 MBq) was intravenously injected into four male NSG mice. After a 5-min and 15-min uptake period, two mice were sedated/euthanized at each timepoint, and blood was collected. The plasma was extracted from whole blood with acetonitrile, vortexed, and the supernatant separated.

[2] = tested on: PC-3 xenograft bearing mice; details: PET/CT, PC-3 tumor-bearing mice
Procedure: Animal experiments were approved by the Animal Ethics Committee of the University of British Columbia.
Mice were sedated and scanned (Siemens Inveon microPET/CT) with body temperature maintained by heating pad. […] PET data were acquired in list mode, reconstructed using 3-dimensional ordered-subsets expectation maximization (2 iterations) followed by a fast maximum a priori algorithm (18 iterations) with CT-based attenuation correction. Images were analyzed using the Inveon Research Workplace software (Siemens Healthineers).

[3] = tested on: PC-3 xenograft bearing mice; assay: Biodistribution in PC-3 tumor-bearing NSG mice (Example 2); format: in vivo
Procedure: (§1) […]. The mice were sacrificed by CO2 inhalation at 1 h, and 2 h p.i. Blood was collected by cardiac puncture. Organs/tissues were harvested, rinsed with PBS, blotted dry, and weighed. The activity in tissues was assayed by gamma counter and expressed as the percentage injected dose per gram of tissue (% ID/g).

[4] = as above; format: in vivo; details: male, NSG (NOD.Cg-Prkdc^scid Il2rg^tm1Wjl/SzJ), mouse, iv, total radioactivity; for tissue uptake at 2 h / tissue to tissue ratio at 2 h: 120 MIN p.i.
Procedure: as §1

CC(C)C[C@@H](CN1CCC[C@H]1C(N)=O)NC(=O)[C@H](Cc1c[nH]cn1)NC(=O)CNC(=O)[C@@H](NC(=O)[C@H](C)NC(=O)[C@H](Cc1c[nH]c2ccccc12)NC(=O)[C@H](CCC(N)=O)NC(=O)[C@@H](Cc1ccccc1)NC(=O)CN1CCC(NC(=O)CN2CCN(CC(=O)O)CCN(CC(=O)O)CCN(CC(=O)O)CC2)CC1)C(C)C [^68Ga-ProBOMB2, metal not drawn]
Intact in plasma [1]: 89% | Clearance pathway [2]: primarily cleared through the renal pathway | TUMOR-TO-BLOOD ratio, Mean ([3]; 60 MIN BLOCKED, co-injection of 100 μg of [D-Phe^6,Leu-NHEt^13,des-Met^14]Bombesin(6-14)): 7.23 | Decrease of average uptake in tumors by co-injection of [D-Phe^6, Leu-NHEt^13, des-Met^14]Bombesin(6-14) ([3]; PC-3 tumors, 60 min p.i., 100 μg blocker): 65% | tissue uptake at 1 h ([4]; PC-3 tumor, 60 MIN BLOCKED, co-injection of 100 μg of [D-Phe^6,Leu-NHEt^13,des-Met^14]Bombesin(6-14), read-out: Biodistribution PC3 TUMOR, Mean): 3.77 %ID/g | tissue uptake at 1 h ([4]; PC-3 tumor, 60 MIN p.i., read-out: Biodistribution PC3 TUMOR, Mean): 10.8 %ID/g | tissue uptake at 2 h ([4]; PC-3 tumor, read-out: Biodistribution PC3 TUMOR, Mean): 8.79 %ID/g | tissue uptake at 1 h ([4]; adrenal glands, 60 MIN BLOCKED, co-injection of 100 μg of [D-Phe^6,Leu-NHEt^13,des-Met^14]Bombesin(6-14), read-out: Biodistribution ADRENAL GLANDS, Mean): 0.32 %ID/g | tissue uptake at 1 h ([4]; adrenal glands, 60 MIN p.i., read-out: Biodistribution ADRENAL GLANDS, Mean): 0.76 %ID/g | tissue uptake at 2 h ([4]; adrenal glands, read-out: Biodistribution ADRENAL GLANDS, Mean): 0.47 %ID/g | tissue uptake at 1 h ([4]; bone, 60 MIN BLOCKED, co-injection of 100 μg of [D-Phe^6,Leu-NHEt^13,des-Met^14]Bombesin(6-14), read-out: Biodistribution BONE, Mean): 0.13 %ID/g | tissue uptake at 1 h ([4]; bone, 60 MIN p.i., read-out: Biodistribution BONE, Mean): 0.15 %ID/g | tissue uptake at 2 h ([4]; bone, read-out: Biodistribution BONE, Mean): 0.06 %ID/g | tissue uptake at 1 h ([4]; brain, 60 MIN BLOCKED, co-injection of 100 μg of [D-Phe^6,Leu-NHEt^13,des-Met^14]Bombesin(6-14), read-out: Biodistribution BRAIN, Mean): 0.02 %ID/g | tissue uptake at 1 h ([4]; brain, 60 MIN p.i., read-out: Biodistribution BRAIN, Mean): 0.02 %ID/g | tissue uptake at 2 h ([4]; brain, read-out: Biodistribution BRAIN, Mean): 0.01 %ID/g | tissue uptake at 1 h ([4]; fat, 60 MIN BLOCKED, co-injection of 100 μg of [D-Phe^6,Leu-NHEt^13,des-Met^14]Bombesin(6-14), read-out: Biodistribution FAT, Mean): 0.08 %ID/g | tissue uptake at 1 h ([4]; fat, 60 MIN p.i., read-out: Biodistribution FAT, Mean): 0.06 %ID/g | tissue uptake at 2 h ([4]; fat, read-out: Biodistribution FAT, Mean): 0.02 %ID/g | tissue uptake at 1 h ([4]; heart, 60 MIN BLOCKED, co-injection of 100 μg of [D-Phe^6,Leu-NHEt^13,des-Met^14]Bombesin(6-14), read-out: Biodistribution HEART, Mean): 0.16 %ID/g | tissue uptake at 1 h ([4]; heart, 60 MIN p.i., read-out: Biodistribution HEART, Mean): 0.18 %ID/g | tissue uptake at 2 h ([4]; heart, read-out: Biodistribution HEART, Mean): 0.05 %ID/g | tissue uptake at 1 h ([4]; intestine, 60 MIN BLOCKED, co-injection of 100 μg of [D-Phe^6,Leu-NHEt^13,des-Met^14]Bombesin(6-14), read-out: Biodistribution INTESTINE, Mean): 0.34 %ID/g | tissue uptake at 1 h ([4]; intestine, 60 MIN p.i., read-out: Biodistribution INTESTINE, Mean): 0.46 %ID/g | tissue uptake at 2 h ([4]; intestine, read-out: Biodistribution INTESTINE, Mean): 0.19 %ID/g | tissue uptake at 1 h ([4]; kidney, 60 MIN BLOCKED, co-injection of 100 μg of [D-Phe^6,Leu-NHEt^13,des-Met^14]Bombesin(6-14), read-out: Biodistribution KIDNEY, Mean): 2.22 %ID/g | tissue uptake at 1 h ([4]; kidney, 60 MIN p.i., read-out: Biodistribution KIDNEY, Mean): 1.81 %ID/g | tissue uptake at 2 h ([4]; kidney, read-out: Biodistribution KIDNEY, Mean): 1.27 %ID/g | tissue uptake at 1 h ([4]; liver, 60 MIN BLOCKED, co-injection of 100 μg of [D-Phe^6,Leu-NHEt^13,des-Met^14]Bombesin(6-14), read-out: Biodistribution LIVER, Mean): 0.57 %ID/g | tissue uptake at 1 h ([4]; liver, 60 MIN p.i., read-out: Biodistribution LIVER, Mean): 0.43 %ID/g | tissue uptake at 2 h ([4]; liver, read-out: Biodistribution LIVER, Mean): 0.29 %ID/g | tissue uptake at 1 h ([4]; lungs, 60 MIN BLOCKED, co-injection of 100 μg of [D-Phe^6,Leu-NHEt^13,des-Met^14]Bombesin(6-14), read-out: Biodistribution LUNGS, Mean): 0.41 %ID/g | tissue uptake at 1 h ([4]; lungs, 60 MIN p.i., read-out: Biodistribution LUNGS, Mean): 0.39 %ID/g | tissue uptake at 2 h ([4]; lungs, read-out: Biodistribution LUNGS, Mean): 0.13 %ID/g | tissue uptake at 1 h ([4]; muscle, 60 MIN BLOCKED, co-injection of 100 μg of [D-Phe^6,Leu-NHEt^13,des-Met^14]Bombesin(6-14), read-out: Biodistribution MUSCLE, Mean): 0.09 %ID/g | tissue uptake at 1 h ([4]; muscle, 60 MIN p.i., read-out: Biodistribution MUSCLE, Mean): 0.15 %ID/g | tissue uptake at 2 h ([4]; muscle, read-out: Biodistribution MUSCLE, Mean): 0.03 %ID/g | tissue uptake at 1 h ([4]; pancreas, Biodistribution PANCREAS, Mean, 60 MIN BLOCKED, co-injection of 100 μg of [D-Phe^6,Leu-NHEt^13,des-Met^14]Bombesin(6-14), read-out: Biodistribution […], Mean): 0.62 %ID/g | tissue uptake at 1 h ([4]; pancreas, Biodistribution PANCREAS, Mean, 60 MIN p.i., read-out: Biodistribution […], Mean): 1.2 %ID/g | tissue uptake at 2 h ([4]; pancreas, Biodistribution PANCREAS, Mean, read-out: Biodistribution […], Mean): 0.3 %ID/g | tissue uptake at 1 h ([4]; seminal, 60 MIN BLOCKED, co-injection of 100 μg of [D-Phe^6,Leu-NHEt^13,des-Met^14]Bombesin(6-14), read-out: Biodistribution SEMINAL, Mean): 1.95 %ID/g | tissue uptake at 1 h ([4]; seminal, 60 MIN p.i., read-out: Biodistribution SEMINAL, Mean): 2.44 %ID/g | tissue uptake at 2 h ([4]; seminal, read-out: Biodistribution SEMINAL, Mean): 1.63 %ID/g | tissue uptake at 1 h ([4]; spleen, 60 MIN BLOCKED, co-injection of 100 μg of [D-Phe^6,Leu-NHEt^13,des-Met^14]Bombesin(6-14), read-out: Biodistribution SPLEEN, Mean): 0.33 %ID/g | tissue uptake at 1 h ([4]; spleen, 60 MIN p.i., read-out: Biodistribution SPLEEN, Mean): 0.27 %ID/g | tissue uptake at 2 h ([4]; spleen, read-out: Biodistribution SPLEEN, Mean): 0.11 %ID/g | tissue uptake at 1 h ([4]; stomach, 60 MIN BLOCKED, co-injection of 100 μg of [D-Phe^6,Leu-NHEt^13,des-Met^14]Bombesin(6-14), read-out: Biodistribution STOMACH, Mean): 0.07 %ID/g | tissue uptake at 1 h ([4]; stomach, 60 MIN p.i., read-out: Biodistribution STOMACH, Mean): 0.19 %ID/g | tissue uptake at 2 h ([4]; stomach, read-out: Biodistribution STOMACH, Mean): 0.06 %ID/g | tissue uptake at 1 h ([4]; testes, 60 MIN BLOCKED, co-injection of 100 μg of [D-Phe^6,Leu-NHEt^13,des-Met^14]Bombesin(6-14), read-out: Biodistribution TESTES, Mean): 0.21 %ID/g | tissue uptake at 1 h ([4]; testes, 60 MIN p.i., read-out: Biodistribution TESTES, Mean): 0.16 %ID/g | tissue uptake at 2 h ([4]; testes, read-out: Biodistribution TESTES, Mean): 0.07 %ID/g | tissue to tissue ratio at 1 h ([4]; tumor/blood, 60 MIN p.i., read-out: TUMOR-TO-BLOOD ratio, Mean): 22.2 | tissue to tissue ratio at 2 h ([4]; tumor/blood, read-out: TUMOR-TO-BLOOD ratio, Mean): 75.3 | tissue to tissue ratio at 1 h ([4]; tumor/bone, 60 MIN BLOCKED, co-injection of 100 μg of [D-Phe^6,Leu-NHEt^13,des-Met^14]Bombesin(6-14), read-out: TUMOR-TO-BONE ratio, Mean): 39.8 | tissue to tissue ratio at 1 h ([4]; tumor/bone, 60 MIN p.i., read-out: TUMOR-TO-BONE ratio, Mean): 89.9 | tissue to tissue ratio at 2 h ([4]; tumor/bone, read-out: TUMOR-TO-BONE ratio, Mean): 173 | tissue to tissue ratio at 1 h ([4]; tumor/kidney, 60 MIN BLOCKED, co-injection of 100 μg of [D-Phe^6,Leu-NHEt^13,des-Met^14]Bombesin(6-14), read-out: TUMOR-TO-KIDNEY ratio, Mean): 1.77 | tissue to tissue ratio at 1 h ([4]; tumor/kidney, 60 MIN p.i., read-out: TUMOR-TO-KIDNEY ratio, Mean): 6.03 | tissue to tissue ratio at 2 h ([4]; tumor/kidney, read-out: TUMOR-TO-KIDNEY ratio, Mean): 6.96 | tissue to tissue ratio at 1 h ([4]; tumor/liver, 60 MIN BLOCKED, co-injection of 100 μg of [D-Phe^6,Leu-NHEt^13,des-Met^14]Bombesin(6-14), read-out: TUMOR-TO-LIVER ratio, Mean): 7.33 | tissue to tissue ratio at 1 h ([4]; tumor/liver, 60 MIN p.i., read-out: TUMOR-TO-LIVER ratio, Mean): 26.2 | tissue to tissue ratio at 2 h ([4]; tumor/liver, read-out: TUMOR-TO-LIVER ratio, Mean): 35 | tissue to tissue ratio at 1 h ([4]; tumor/muscle, 60 MIN BLOCKED, co-injection of 100 μg of [D-Phe^6,Leu-NHEt^13,des-Met^14]Bombesin(6-14), read-out: TUMOR-TO-MUSCLE ratio, Mean): 44 | tissue to tissue ratio at 1 h ([4]; tumor/muscle, 60 MIN p.i., read-out: TUMOR-TO-MUSCLE ratio, Mean): 102 | tissue to tissue ratio at 2 h ([4]; tumor/muscle, read-out: TUMOR-TO-MUSCLE ratio, Mean): 411 | tissue to tissue ratio at 1 h ([4]; tumor/pancreas, TUMOR-TO-PANCREAS ratio, Mean, 60 MIN BLOCKED, co-injection of 100 μg of [D-Phe^6,Leu-NHEt^13,des-Met^14]Bombesin(6-14), read-out: TUMOR-TO-[…] ratio, Mean): 6.17 | tissue to tissue ratio at 1 h ([4]; tumor/pancreas, TUMOR-TO-PANCREAS ratio, Mean, 60 MIN p.i., read-out: TUMOR-TO-[…] ratio, Mean): 9.32 | tissue to tissue ratio at 2 h ([4]; tumor/pancreas, TUMOR-TO-PANCREAS ratio, Mean, read-out: TUMOR-TO-[…] ratio, Mean): 31.1 | tissue uptake at 1 h ([4]; whole blood, 60 MIN BLOCKED, co-injection of 100 μg of [D-Phe^6,Leu-NHEt^13,des-Met^14]Bombesin(6-14), read-out: Biodistribution BLOOD, Mean): 0.53 %ID/g | tissue uptake at 1 h ([4]; whole blood, 60 MIN p.i., read-out: Biodistribution BLOOD, Mean): 0.49 %ID/g | tissue uptake at 2 h ([4]; whole blood, read-out: Biodistribution BLOOD, Mean): 0.13 %ID/g
